These results are taken from patent US20240158370A1, “CK1 alpha AND DUAL CK1 alpha / GSPT1 DEGRADING COMPOUNDS” (Innovo Therapeutics, Inc., priority 2022, published 2024).

One assay has as its target GSPT1 (Homo sapiens, UniProt P15170+Q96SW2). Kind of assay: HiBiT degradation assay, GSPT1, Procedure A. The class given is cell-based. On the set-up: HiBit-GSPT1 KI HEK293(LgBit) Cells; host or cells: HEK293(LgBit) knock-in cells. The procedure: (§1) Compounds were spotted onto Cornin 384-Well, Cell Culture-Treated, Flat-Bottom, Low Flange Microplate (Fisher Scientific, Catalog #07-201-013) using a Tecan D300e digital dispenser. Ten-point dose response curves spanning from 10 μM to 0.005 μM with a 0.1% DMSO tolerance were used.
(§2) Cells were dissociated from tissue 182 cm^2 Tissue Culture Flask (CellTreat Catalog #229351) by washing the cells with PBS (Fisher Scientific Catalog #BP3994) followed by dissociation with Trypsin-EDTA (0.25%) (Thermo Scientific Catalog #25200056). Trysin was neutralized and cells were resuspended with DMEM+10% FBS. Cells were centrifuged for 5 minutes at 1200 RPMs. Cell culture media was aspirated off and cells were resuspended with DMEM+10% FBS. Cell density was determined using a Denovix CellDrop BF cell counter. Cell density was adjusted to 1×10^6 cells/ml. 40 μl of cells was added to compound treated tissue culture plates and incubated for six hours at 37° C. After six hours, cell culture plates were removed from tissue culture incubator and cooled to room temperature. 40 μl of Nano-GloHiBiT Lytic Detection Reagent (Promega, Catalog #N3040) was added to each well. Plates were placed on an orbital shaker (600 rpm) for 20 minutes. Luminescence was measured using an Envsion plate reader (Perkin Elmer). DC50 curves and Ymin were generated using a 4-parameter curve fit with GraphPad Prism software (Prism Corporation).
(§3) Results from the HiBiT assay (DC50 (nM) and Ymin (% remaining)) are shown below. All CK1α data was generated according to Procedure A. GSPT1 data for Examples 1-600, 603-620 and 703-705 was generated according to Procedure A. GSPT1 data for Examples 601, 621-702 and 706-735 was generated according to Procedure B.
For orientation: HiBiT is a short tag that completes a luciferase, so light tracks the accessible tagged protein.

The target in another assay is T1, CK1α (Homo sapiens, UniProt P48729+Q96SW2).
T1 construct: CSNK1A1-HiBit KI HEK293(LgBit) Cells; host or cells: HEK293(LgBit) knock-in cells
The assay can be described thus: HiBiT degradation assay, CK1α, Procedure A. The class given is cell-based. The procedure:
as §1, §2, §3

T1 sequence (P48729 whole entry): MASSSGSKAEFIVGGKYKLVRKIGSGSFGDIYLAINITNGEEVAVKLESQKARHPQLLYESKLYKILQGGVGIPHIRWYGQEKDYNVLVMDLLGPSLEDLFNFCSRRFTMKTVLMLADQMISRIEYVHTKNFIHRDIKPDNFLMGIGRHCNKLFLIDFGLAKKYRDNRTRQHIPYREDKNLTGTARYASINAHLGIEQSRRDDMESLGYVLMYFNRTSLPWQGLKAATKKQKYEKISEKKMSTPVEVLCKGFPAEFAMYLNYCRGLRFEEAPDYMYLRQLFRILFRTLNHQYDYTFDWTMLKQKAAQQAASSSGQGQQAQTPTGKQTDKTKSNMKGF
T1 sequence (Q96SW2 whole entry): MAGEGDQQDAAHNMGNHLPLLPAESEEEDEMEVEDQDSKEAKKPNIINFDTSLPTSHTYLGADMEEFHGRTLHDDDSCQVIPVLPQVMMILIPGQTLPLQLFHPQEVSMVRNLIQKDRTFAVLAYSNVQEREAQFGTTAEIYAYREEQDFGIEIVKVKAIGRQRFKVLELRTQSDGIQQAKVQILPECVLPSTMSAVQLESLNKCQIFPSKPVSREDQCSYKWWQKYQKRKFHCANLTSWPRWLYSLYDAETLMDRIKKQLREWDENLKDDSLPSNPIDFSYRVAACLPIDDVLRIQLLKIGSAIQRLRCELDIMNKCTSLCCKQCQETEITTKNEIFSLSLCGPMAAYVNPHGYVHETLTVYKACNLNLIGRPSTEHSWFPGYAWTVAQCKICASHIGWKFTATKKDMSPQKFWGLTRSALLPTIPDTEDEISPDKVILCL
T1 sequence (Q16531 whole entry partner): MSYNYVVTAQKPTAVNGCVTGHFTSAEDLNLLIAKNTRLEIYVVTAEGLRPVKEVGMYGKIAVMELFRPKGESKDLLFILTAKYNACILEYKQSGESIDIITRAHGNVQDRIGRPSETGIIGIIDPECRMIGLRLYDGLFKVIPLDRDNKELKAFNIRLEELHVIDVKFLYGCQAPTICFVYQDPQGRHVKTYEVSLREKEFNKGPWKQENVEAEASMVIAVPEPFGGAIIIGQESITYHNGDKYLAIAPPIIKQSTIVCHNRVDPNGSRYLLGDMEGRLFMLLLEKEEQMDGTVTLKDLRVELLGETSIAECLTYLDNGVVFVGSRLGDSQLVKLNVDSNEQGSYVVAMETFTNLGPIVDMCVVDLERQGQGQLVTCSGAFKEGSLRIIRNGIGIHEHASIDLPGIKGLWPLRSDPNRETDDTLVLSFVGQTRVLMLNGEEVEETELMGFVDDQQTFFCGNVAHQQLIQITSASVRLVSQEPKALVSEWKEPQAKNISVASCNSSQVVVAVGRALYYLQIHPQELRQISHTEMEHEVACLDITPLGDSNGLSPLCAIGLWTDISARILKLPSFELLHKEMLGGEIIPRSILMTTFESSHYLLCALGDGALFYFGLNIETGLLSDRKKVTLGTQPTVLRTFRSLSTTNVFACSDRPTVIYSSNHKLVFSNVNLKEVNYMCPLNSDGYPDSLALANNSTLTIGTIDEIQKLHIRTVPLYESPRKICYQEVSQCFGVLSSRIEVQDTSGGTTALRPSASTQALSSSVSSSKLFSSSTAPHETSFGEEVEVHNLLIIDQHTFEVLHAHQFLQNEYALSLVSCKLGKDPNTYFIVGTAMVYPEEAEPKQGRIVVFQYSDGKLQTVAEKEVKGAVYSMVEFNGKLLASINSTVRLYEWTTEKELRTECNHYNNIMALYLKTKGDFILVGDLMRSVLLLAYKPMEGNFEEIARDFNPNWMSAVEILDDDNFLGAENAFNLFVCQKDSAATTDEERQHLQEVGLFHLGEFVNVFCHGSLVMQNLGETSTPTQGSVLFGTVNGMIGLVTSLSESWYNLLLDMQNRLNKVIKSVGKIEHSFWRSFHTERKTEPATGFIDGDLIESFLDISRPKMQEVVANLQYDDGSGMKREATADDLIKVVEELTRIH
Chain of GSPT1 (P15170 whole entry): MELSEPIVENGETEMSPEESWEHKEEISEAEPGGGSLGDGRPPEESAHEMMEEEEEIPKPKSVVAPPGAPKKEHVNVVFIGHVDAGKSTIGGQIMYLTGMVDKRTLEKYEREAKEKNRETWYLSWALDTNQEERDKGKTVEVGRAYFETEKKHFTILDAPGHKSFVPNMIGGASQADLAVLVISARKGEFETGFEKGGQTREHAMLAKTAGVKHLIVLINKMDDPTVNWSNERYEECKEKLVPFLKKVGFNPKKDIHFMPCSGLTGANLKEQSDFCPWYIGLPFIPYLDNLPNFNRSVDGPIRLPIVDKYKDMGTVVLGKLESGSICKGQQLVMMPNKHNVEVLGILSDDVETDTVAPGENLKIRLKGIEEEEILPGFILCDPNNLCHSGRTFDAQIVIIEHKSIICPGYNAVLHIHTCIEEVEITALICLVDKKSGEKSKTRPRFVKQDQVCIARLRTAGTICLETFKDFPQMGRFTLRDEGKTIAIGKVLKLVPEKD
Chain of GSPT1 (Q96SW2 whole entry): as the sequence (Q96SW2 whole entry) above
Chain of GSPT1 (Q16531 whole entry partner): as the sequence (Q16531 whole entry partner) above

Usually DC50 stands for the concentration giving 50% degradation. A higher DC50 goes with degradation only at high concentration. Take `Cn1ncc(-c2ccc3c(c2)CN(C2CCC(=O)NC2=O)C3=O)c1-c1cncc(OCc2ccccc2)c1` (stereo not drawn) [Example 467]: the DC50 at GSPT1 (six hours) is no less than 25 nM. Also, at CK1α (six hours), the “CK1α Ymin” value is recorded as “F (F = >75-100% remaining)” and the DC50 was no less than 25 nM.

With `Cn1cnc(-c2ccc3c(c2)CN(C2CCC(=O)NC2=O)C3=O)c1-c1ccc(C#N)s1` (stereo not drawn) [Example 342], at GSPT1 (six hours incubation), the DC50 is no less than 25 nM and the “GSPT1 Ymin” value was “F (F = >75-100% remaining)”. On CK1α (six hours incubation), the “CK1α Ymin” value is recorded as “F (F = >75-100% remaining)” and the DC50 was no less than 25 nM.

Turning to `COc1c(F)cccc1-c1c(-c2ccc3c(c2)CN(C2CCC(=O)NC2=O)C3=O)cnn1C` (stereo not drawn) [Example 107], at GSPT1 (six hours incubation), the DC50 was no less than 25 nM and the “GSPT1 Ymin” value is listed as “F (F = >75-100% remaining)”. At CK1α (six hours incubation), the “CK1α Ymin” value was “E (E = >25-75% remaining)” and the half-maximal degradation concentration (DC50) was less than 25 nM.

Take `Cn1ncc(-c2ccc3c(c2)CN(C2CCC(=O)NC2=O)C3=O)c1-c1ccc(CN2CCOCC2)cc1` (stereo not drawn) [Example 214]: on GSPT1 (six hours incubation), the DC50 was no less than 25 nM and the “GSPT1 Ymin” value was “F (F = >75-100% remaining)”. Besides, on CK1α (six hours incubation), the “CK1α Ymin” value was “E (E = >25-75% remaining)” and the DC50 was less than 25 nM.

Regarding `Cn1cnc(-c2ccc3c(c2)CN(C2CCC(=O)NC2=O)C3=O)c1-c1ccc(F)c(C(F)(F)F)c1` (stereo not drawn) [Example 293], at GSPT1 (six hours incubation), the DC50 is less than 25 nM and the “GSPT1 Ymin” value is recorded as “F (F = >75-100% remaining)”. For the same compound, at CK1α (six hours incubation), the “CK1α Ymin” value was “E (E = >25-75% remaining)” and the DC50 is no less than 25 nM.

As to `Cn1ncc(-c2ccc3c(c2)CN(C2CCC(=O)NC2=O)C3=O)c1-c1ccccc1` (stereo not drawn) [Example 1, 3-(5-(1-Methyl-5-phenyl-1H-pyrazol-4-yl)-1-oxoisoindolin-2-yl)piperidine-2,6-dione], at GSPT1 (six hours incubation), the 50% degradation concentration (DC50) is no less than 25 nM and the “GSPT1 Ymin” value is recorded as “F (F = >75-100% remaining)”. In addition, on CK1α (six hours incubation), the “CK1α Ymin” value is on record as “D (D = >10- 25% remaining)” and the DC50 is less than 25 nM.

As to `COc1ccc(-c2c(-c3ccc4c(c3)CN(C3CCC(=O)NC3=O)C4=O)cnn2C)cc1` (stereo not drawn) [Example 70], at GSPT1 (six hours incubation), the DC50 is no less than 25 nM and the “GSPT1 Ymin” value is listed as “F (F = >75-100% remaining)”. For the same compound, on CK1α (six hours incubation), the “CK1α Ymin” value was “C (C = 0-10% remaining)” and the DC50 is less than 25 nM.

Take `O=C1CCC(N2Cc3cc(-c4cscc4-c4ccccc4)ccc3C2=O)C(=O)N1` (stereo not drawn) [Example 4, 3-(1-Oxo-5-(4-phenylthiophen-3-yl)isoindolin-2-yl)piperidine-2,6-dione]: on GSPT1 (six hours incubation), the DC50 was no less than 25 nM and the “GSPT1 Ymin” value is listed as “F (F = >75-100% remaining)”. On CK1α (six hours incubation), the “CK1α Ymin” value is reported as “E (E = >25-75% remaining)” and the DC50 was no less than 25 nM.

In the case of `Cn1nc(-c2ccc3c(c2)CN(C2CCC(=O)NC2=O)C3=O)nc1N1CCC2(CC1)CC2` (stereo not drawn) [Example 608, 3-(5-(1-methyl-5-(6-azaspiro[2.5]octan-6-yl)-1H-1,2,4-triazol-3-yl)-1-oxoisoindolin-2-yl)piperidine-2,6-dione], on GSPT1 (six hours), the DC50 was no less than 25 nM and the “GSPT1 Ymin” value is given as “F (F = >75-100% remaining)”. Moreover, at CK1α (six hours), the “CK1α Ymin” value is reported as “D (D = >10- 25% remaining)” and the DC50 was less than 25 nM.

As for `Cn1cnc(-c2ccc3c(c2)CN(C2CCC(=O)NC2=O)C3=O)c1-c1ccccc1N` (stereo not drawn) [Example 440], on GSPT1 (six hours), the DC50 is less than 25 nM and the “GSPT1 Ymin” value is “E (E = >25-75% remaining)”. At CK1α (six hours), the “CK1α Ymin” value is “C (C = 0-10% remaining)” and the DC50 was less than 25 nM.

For the compound `COc1c(F)cccc1-c1c(-c2ccc3c(c2)CN(C2CCC(=O)NC2=O)C3=O)ncn1C` (stereo not drawn) [Example 195], on GSPT1 (six hours incubation), the DC50 is less than 25 nM and the “GSPT1 Ymin” value is listed as “E (E = >25-75% remaining)”. Also, at CK1α (six hours incubation), the “CK1α Ymin” value is “D (D = >10- 25% remaining)” and the DC50 was less than 25 nM.

Take `Cn1c(C2CCOCC2)nc(-c2ccc3c(c2)CN(C2CCC(=O)NC2=O)C3=O)c1C1CC1` (stereo not drawn) [Example 604, 3-(5-(5-cyclopropyl-1-methyl-2-(tetrahydro-2H-pyran-4-yl)-1H-imidazol-4-yl)-1-oxoisoindolin-2-yl)piperidine-2,6-dione]: at GSPT1 (six hours), the DC50 is no less than 25 nM and the “GSPT1 Ymin” value was “F (F = >75-100% remaining)”. Also, at CK1α (six hours), the “CK1α Ymin” value is given as “C (C = 0-10% remaining)” and the half-maximal degradation concentration (DC50) is less than 25 nM.

Turning to `Cc1[nH]nc(-c2ccc3c(c2)CN(C2CCC(=O)NC2=O)C3=O)c1-c1ccccc1` (stereo not drawn) [Example 11], at GSPT1 (six hours incubation), the DC50 was less than 25 nM and the “GSPT1 Ymin” value is reported as “D (D = >10- 25% remaining)”. For the same compound, at CK1α (six hours incubation), the “CK1α Ymin” value is “C (C = 0-10% remaining)” and the DC50 was less than 25 nM.

In the case of `O=C1CCC(N2Cc3cc(-c4c[nH]nc4-c4ccccn4)ccc3C2=O)C(=O)N1` (stereo not drawn) [Example 118, 3-(1-oxo-5-(3-(pyridin-2-yl)-1H-pyrazol-4-yl)isoindolin-2-yl)piperidine-2,6-dione], on GSPT1 (six hours incubation), the 50% degradation concentration (DC50) was no less than 25 nM and the “GSPT1 Ymin” value is listed as “F (F = >75-100% remaining)”. At CK1α (six hours incubation), the “CK1α Ymin” value is “E (E = >25-75% remaining)” and the 50% degradation concentration (DC50) was no less than 25 nM.

Consider `CC(C)Cn1cc(-c2c(-c3ccc4c(c3)CN(C3CCC(=O)NC3=O)C4=O)ncn2C)cn1` (stereo not drawn) [Example 491], for which, on GSPT1 (six hours), the DC50 is no less than 25 nM and the “GSPT1 Ymin” value was “E (E = >25-75% remaining)”. For the same compound, at CK1α (six hours), the “CK1α Ymin” value is given as “D (D = >10- 25% remaining)” and the DC50 is less than 25 nM.

With `Cn1ncc(-c2ccc3c(c2)CN(C2CCC(=O)NC2=O)C3=O)c1-c1ccc2c(ccn2C)c1` (stereo not drawn) [Example 387], at GSPT1 (six hours), the 50% degradation concentration (DC50) is no less than 25 nM and the “GSPT1 Ymin” value is recorded as “F (F = >75-100% remaining)”. Besides, on CK1α (six hours), the “CK1α Ymin” value is “D (D = >10- 25% remaining)” and the DC50 was less than 25 nM.

For `Cc1ccc(-c2c(-c3ccc4c(c3)CN(C3CCC(=O)NC3=O)C4=O)cnn2C)cn1` (stereo not drawn) [Example 367], on GSPT1 (six hours incubation), the DC50 is less than 25 nM and the “GSPT1 Ymin” value is “F (F = >75-100% remaining)”. Further, on CK1α (six hours incubation), the “CK1α Ymin” value is reported as “C (C = 0-10% remaining)” and the DC50 was less than 25 nM.

For `Cn1nc(-c2ccccc2)cc1-c1ccc2c(c1)CN(C1CCC(=O)NC1=O)C2=O` (stereo not drawn) [Example 35, 3-(5-(1-Methyl-3-phenyl-1H-pyrazol-5-yl)-1-oxoisoindolin-2-yl)piperidine-2,6-dione], on GSPT1 (six hours incubation), the DC50 was no less than 25 nM and the “GSPT1 Ymin” value was “F (F = >75-100% remaining)”. Moreover, at CK1α (six hours incubation), the “CK1α Ymin” value is listed as “F (F = >75-100% remaining)” and the half-maximal degradation concentration (DC50) was no less than 25 nM.

With `Cn1nc(-c2ccc3c(c2)CN(C2CCC(=O)NC2=O)C3=O)nc1[C@H]1CC[C@@H](C)CC1` (stereo partly drawn) [Example 617, 3-(5-(1-methyl-5-((1s,4s)-4-methylcyclohexyl)-1H-1,2,4-triazol-3-yl)-1-oxoisoindolin-2-yl)piperidine-2,6-dione], at GSPT1 (six hours), the DC50 was less than 25 nM and the “GSPT1 Ymin” value is given as “F (F = >75-100% remaining)”. For the same compound, at CK1α (six hours), the “CK1α Ymin” value is given as “E (E = >25-75% remaining)” and the half-maximal degradation concentration (DC50) was less than 25 nM.

On to `Cn1cnc(-c2ccc3c(c2)CN(C2CCC(=O)NC2=O)C3=O)c1-c1cccc(Cl)c1Cl` (stereo not drawn) [Example 284], for which, at GSPT1 (six hours incubation), the DC50 is no less than 25 nM and the “GSPT1 Ymin” value is recorded as “F (F = >75-100% remaining)”. At CK1α (six hours incubation), the “CK1α Ymin” value is reported as “E (E = >25-75% remaining)” and the half-maximal degradation concentration (DC50) is less than 25 nM.

For the compound `Cn1nc(-c2ccc3c(c2)CN(C2CCC(=O)NC2=O)C3=O)cc1-c1ccc(C(F)(F)F)cc1` (stereo not drawn) [Example 495, 3-(5-(1-methyl-5-(4-(trifluoromethyl)phenyl)-1H-pyrazol-3-yl)-1-oxoisoindolin-2-yl)piperidine-2,6-dione], at CK1α (six hours), the “CK1α Ymin” value is “C (C = 0-10% remaining)” and the DC50 was less than 25 nM.
